Experiments:
Test in all cases: Off-target binding screen
5-HT7 = molecular target: T1, 5-HT7 (Homo sapiens, UniProt P34969); settings: read-out: % Inhibition of Control Specific Binding; for inhibition at 1 µM: 1000 nM
T1 construct: Eurofins Pharma Discovery Services (contract screen)

α1D = molecular target: T2, α1D (Homo sapiens, UniProt P25100); settings: read-out: % Inhibition of Control Specific Binding; for inhibition at 0.01 µM: 10 nM; for inhibition at 0.1 µM: 100 nM; for inhibition at 1 µM: 1000 nM
T2 construct: Eurofins Pharma Discovery Services (contract screen)
T2 sequence (P25100 1-572): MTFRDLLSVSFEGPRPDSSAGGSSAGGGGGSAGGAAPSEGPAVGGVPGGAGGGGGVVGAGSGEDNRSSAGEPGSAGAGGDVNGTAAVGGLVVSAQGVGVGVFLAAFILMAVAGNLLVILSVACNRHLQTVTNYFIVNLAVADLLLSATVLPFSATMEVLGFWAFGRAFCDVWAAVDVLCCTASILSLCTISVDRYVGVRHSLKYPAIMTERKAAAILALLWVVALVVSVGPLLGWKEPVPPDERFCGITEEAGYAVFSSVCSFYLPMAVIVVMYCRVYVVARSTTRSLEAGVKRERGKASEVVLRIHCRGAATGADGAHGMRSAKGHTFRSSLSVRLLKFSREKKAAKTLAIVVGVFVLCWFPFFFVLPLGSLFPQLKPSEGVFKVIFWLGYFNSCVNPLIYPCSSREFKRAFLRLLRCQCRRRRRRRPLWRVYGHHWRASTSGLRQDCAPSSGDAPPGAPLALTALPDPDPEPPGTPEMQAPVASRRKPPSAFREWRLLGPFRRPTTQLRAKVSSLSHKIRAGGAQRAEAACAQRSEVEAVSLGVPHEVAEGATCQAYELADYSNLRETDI

α2B = molecular target: T3, α2B (Homo sapiens, UniProt P18089); settings: read-out: % Inhibition of Control Specific Binding; for inhibition at 0.01 µM: 10 nM; for inhibition at 0.1 µM: 100 nM; for inhibition at 1 µM: 1000 nM
T3 construct: Eurofins Pharma Discovery Services (contract screen)
T3 sequence (P18089 1-450): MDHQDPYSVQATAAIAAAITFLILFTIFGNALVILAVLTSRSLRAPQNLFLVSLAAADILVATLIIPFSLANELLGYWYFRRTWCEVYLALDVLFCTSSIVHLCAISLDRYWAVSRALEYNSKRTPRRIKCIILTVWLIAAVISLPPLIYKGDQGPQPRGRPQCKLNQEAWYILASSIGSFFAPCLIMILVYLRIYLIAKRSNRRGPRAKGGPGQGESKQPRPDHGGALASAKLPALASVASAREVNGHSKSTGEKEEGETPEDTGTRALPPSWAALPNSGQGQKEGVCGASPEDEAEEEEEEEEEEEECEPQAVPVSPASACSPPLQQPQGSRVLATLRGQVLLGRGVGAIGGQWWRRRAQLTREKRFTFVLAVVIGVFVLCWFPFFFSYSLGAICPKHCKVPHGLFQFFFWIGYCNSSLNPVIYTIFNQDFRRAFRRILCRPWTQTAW

β1 = molecular target: T4, β1 (Homo sapiens, UniProt P08588); settings: 1000 nM, read-out: % Inhibition of Control Specific Binding
T4 construct: Eurofins Pharma Discovery Services (contract screen)

D5 = molecular target: T5, D5 (Homo sapiens, UniProt P21918); settings: read-out: % Inhibition of Control Specific Binding; for inhibition at 1 µM: 1000 nM
T5 construct: Eurofins Pharma Discovery Services (contract assay)

M1 = molecular target: T6, M1 (Homo sapiens, UniProt P11229); settings: 1000 nM, read-out: % Inhibition of Control Specific Binding
T6 construct: Eurofins Pharma Discovery Services (contract assay)
T6 sequence (P11229 1-460): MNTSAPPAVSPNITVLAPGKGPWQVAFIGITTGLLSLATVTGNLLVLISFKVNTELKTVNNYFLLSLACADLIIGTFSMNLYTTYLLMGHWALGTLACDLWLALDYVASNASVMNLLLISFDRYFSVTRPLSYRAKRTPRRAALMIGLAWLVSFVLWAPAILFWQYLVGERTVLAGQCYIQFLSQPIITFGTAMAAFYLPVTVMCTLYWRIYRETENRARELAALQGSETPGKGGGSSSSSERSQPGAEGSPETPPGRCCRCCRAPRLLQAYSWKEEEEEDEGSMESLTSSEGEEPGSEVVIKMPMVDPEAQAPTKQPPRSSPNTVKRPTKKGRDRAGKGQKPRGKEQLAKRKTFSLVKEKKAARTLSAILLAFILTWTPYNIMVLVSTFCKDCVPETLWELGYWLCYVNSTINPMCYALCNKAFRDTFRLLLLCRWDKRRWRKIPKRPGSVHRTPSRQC

M2 = molecular target: T7, M2 (Homo sapiens, UniProt P08172); settings: 1000 nM, read-out: % Inhibition of Control Specific Binding
T7 construct: Eurofins Pharma Discovery Services (contract assay)
T7 sequence (P08172 1-466): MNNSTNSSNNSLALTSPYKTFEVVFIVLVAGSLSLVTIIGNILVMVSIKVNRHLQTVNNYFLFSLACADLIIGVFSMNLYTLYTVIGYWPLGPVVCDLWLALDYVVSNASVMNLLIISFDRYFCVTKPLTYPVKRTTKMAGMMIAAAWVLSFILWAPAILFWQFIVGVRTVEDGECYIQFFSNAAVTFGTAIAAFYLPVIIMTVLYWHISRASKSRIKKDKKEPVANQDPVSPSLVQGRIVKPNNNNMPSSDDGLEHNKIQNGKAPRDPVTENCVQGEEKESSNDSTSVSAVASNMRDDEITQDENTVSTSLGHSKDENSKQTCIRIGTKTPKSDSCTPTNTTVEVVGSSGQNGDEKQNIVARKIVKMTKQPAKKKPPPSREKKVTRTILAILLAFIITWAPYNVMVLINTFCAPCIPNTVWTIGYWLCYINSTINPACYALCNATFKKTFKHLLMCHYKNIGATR

M4 = molecular target: T8, M4 (Homo sapiens, UniProt P08173); settings: 1000 nM, read-out: % Inhibition of Control Specific Binding
T8 construct: Eurofins Pharma Discovery Services (contract assay)
T8 sequence (P08173 1-479): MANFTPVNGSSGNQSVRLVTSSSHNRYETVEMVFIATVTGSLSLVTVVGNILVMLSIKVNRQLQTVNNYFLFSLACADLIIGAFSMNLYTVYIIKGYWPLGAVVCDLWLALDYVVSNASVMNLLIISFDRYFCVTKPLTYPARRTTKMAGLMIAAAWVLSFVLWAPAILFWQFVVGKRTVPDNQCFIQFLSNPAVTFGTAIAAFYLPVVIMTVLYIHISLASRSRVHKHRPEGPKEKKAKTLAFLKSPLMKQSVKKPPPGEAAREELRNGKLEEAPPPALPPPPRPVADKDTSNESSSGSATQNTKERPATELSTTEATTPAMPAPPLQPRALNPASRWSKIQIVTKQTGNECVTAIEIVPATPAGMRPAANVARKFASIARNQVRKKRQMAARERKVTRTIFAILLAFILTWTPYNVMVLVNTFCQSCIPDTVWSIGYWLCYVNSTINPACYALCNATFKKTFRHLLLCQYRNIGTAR

T5 sequence (P21918 whole entry): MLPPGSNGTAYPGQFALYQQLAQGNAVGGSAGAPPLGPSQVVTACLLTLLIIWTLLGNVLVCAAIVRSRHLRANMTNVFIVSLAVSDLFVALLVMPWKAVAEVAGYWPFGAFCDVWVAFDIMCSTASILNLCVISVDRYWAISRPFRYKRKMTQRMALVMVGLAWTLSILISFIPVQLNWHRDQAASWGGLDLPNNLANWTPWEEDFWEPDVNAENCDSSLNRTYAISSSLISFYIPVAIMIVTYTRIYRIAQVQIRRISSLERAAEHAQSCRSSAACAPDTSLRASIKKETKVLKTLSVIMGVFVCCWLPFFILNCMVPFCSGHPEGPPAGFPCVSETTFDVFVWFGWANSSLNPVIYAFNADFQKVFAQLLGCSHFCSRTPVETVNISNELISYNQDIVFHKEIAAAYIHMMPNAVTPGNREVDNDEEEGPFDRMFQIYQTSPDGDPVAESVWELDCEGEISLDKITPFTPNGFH
T1 sequence (P34969 whole entry, species assumed): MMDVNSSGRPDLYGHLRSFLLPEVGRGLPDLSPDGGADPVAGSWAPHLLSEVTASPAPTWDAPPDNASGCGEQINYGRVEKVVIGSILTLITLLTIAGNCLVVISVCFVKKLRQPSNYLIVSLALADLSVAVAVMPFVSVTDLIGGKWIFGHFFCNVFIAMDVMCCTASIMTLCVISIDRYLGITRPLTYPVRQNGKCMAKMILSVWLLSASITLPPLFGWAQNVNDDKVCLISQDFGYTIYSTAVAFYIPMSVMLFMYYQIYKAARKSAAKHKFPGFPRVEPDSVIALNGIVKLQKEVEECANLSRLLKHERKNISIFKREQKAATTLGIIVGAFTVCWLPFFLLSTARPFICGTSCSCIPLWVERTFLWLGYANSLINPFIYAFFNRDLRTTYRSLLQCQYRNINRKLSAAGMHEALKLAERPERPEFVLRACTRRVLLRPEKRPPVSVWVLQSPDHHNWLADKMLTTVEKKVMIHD
T4 sequence (P08588 whole entry): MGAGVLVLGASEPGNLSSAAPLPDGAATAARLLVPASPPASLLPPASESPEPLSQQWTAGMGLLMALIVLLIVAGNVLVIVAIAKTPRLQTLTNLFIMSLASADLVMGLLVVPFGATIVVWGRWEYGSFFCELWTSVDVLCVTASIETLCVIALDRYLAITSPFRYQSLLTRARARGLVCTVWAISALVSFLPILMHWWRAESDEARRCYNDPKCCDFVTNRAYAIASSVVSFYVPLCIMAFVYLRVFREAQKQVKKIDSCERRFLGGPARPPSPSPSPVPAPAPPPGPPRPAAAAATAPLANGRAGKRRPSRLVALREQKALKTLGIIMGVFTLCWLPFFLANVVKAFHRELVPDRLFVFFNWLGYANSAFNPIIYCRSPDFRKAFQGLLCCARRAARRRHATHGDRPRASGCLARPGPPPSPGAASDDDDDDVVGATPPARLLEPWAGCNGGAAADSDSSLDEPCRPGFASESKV

For `O=C(c1ccc(F)c(Cl)c1)N1CCC(F)(CNCCOc2ccccc2)CC1` [Compound 3], the inhibition at 1 µM (5-HT7) was 30%, the inhibition at 0.01 µM (α1D) was 19% and the inhibition at 0.1 µM (α1D) was 40%. The inhibition at 1 µM (α1D) was 84%, the inhibition at 0.01 µM (α2B) was -2% and the inhibition at 0.1 µM (α2B) was 45%. It also gave an inhibition at 1 µM (α2B) of 85%, an inhibition at 1 µM (β1) of -8% and an inhibition at 1 µM (D5) of 40%. The inhibition at 1 µM (M1) was -2%, the inhibition at 1 µM (M2) was -20% and the inhibition at 1 µM (M4) was -9%.
`CNc1ccccc1OCCNCC1(F)CCN(C(=O)c2ccc(F)c(Cl)c2)CC1` [Compound 44, (3-Chloro-4-fluorophenyl)(4-fluoro-4-(((2-(2-(methylamino)phenoxy)ethyl)amino)methyl)piperidin-1-yl)methanone] was tested, and the inhibition at 1 µM (5-HT7) was 11%, the inhibition at 0.01 µM (α1D) was -1% and the inhibition at 0.1 µM (α1D) was 32%. For the same compound, the inhibition at 1 µM (α1D) was 80%, the inhibition at 1 µM (α2B) was -2% and the inhibition at 1 µM (β1) was -5%. It also gave an inhibition at 1 µM (D5) of 29%, an inhibition at 1 µM (M1) of -6% and an inhibition at 1 µM (M2) of -12%. For the same compound, the inhibition at 1 µM (M4) was -11%.
For `O=C(c1ccc(F)c(Cl)c1)N1CCC(F)(CNCCOc2cccc3[nH]ccc23)CC1` [Compound 56, (4-(((2-((1H-Indol-4-yl)oxy)ethyl)amino)methyl)-4-fluoropiperidin-1-yl)(3-chloro-4-fluorophenyl)methanone], the inhibition at 0.001 µM (5-HT7; 1 nM) was 5%, the inhibition at 0.01 µM (5-HT7; 10 nM) was 32% and the inhibition at 0.1 µM (5-HT7; 100 nM) was 68%. It also gave an inhibition at 0.001 µM (α1D; 1 nM) of -7%, an inhibition at 0.01 µM (α1D) of 23% and an inhibition at 0.1 µM (α1D) of 63%. The inhibition at 0.01 µM (α2B) was -8%, the inhibition at 0.1 µM (α2B) was 29% and the inhibition at 1 µM (α2B) was 75%. It also gave an inhibition at 0.001 µM (D5; 1 nM) of -10%, an inhibition at 0.01 µM (D5; 10 nM) of -3% and an inhibition at 0.1 µM (D5; 100 nM) of 53%. It also gave an inhibition at 1 µM (D5) of 91%, an inhibition at 1 µM (M1) of -10% and an inhibition at 1 µM (M2) of -8%. The inhibition at 1 µM (M4) was -10%.

From paper PMC7586344, “Discovery of Novel pERK1/2- or β-Arrestin-Preferring 5-HT1A Receptor-Biased Agonists: Diversified Therapeutic-like versus Side Effect Profile” (Journal of Medicinal Chemistry, 2020)
